Experimental data: ChEMBL document CHEMBL5143615, “Novel 2-aryl-4-aryloxyquinoline-based fungistatics for Mucor circinelloides. Biological evaluation of activity, QSAR and docking study” (Bioorg Med Chem Lett, 2022)
Converted amounts (≈) assume the structure as drawn. The source made the active and inactive calls. The rule behind the calls is not given here.

How the values were obtained:
Mucor circinelloides [1] = assay: Antifungal activity against Mucor circinelloides R7B wild type strain assessed as reduction in spore germination at 100 ug/ml relative to control; format: functional; design: scale not given: the % may be the effect or the level left; details: dose 100 µg/ml
Mucor circinelloides [2] = assay: Antifungal activity against Mucor circinelloides M5 strain assessed as reduction in spore germination at 100 ug/ml relative to control; format: functional; design: scale not given: the % may be the effect or the level left; details: dose 100 µg/ml
Mucor circinelloides [3] = assay: Antifungal activity against Mucor circinelloides R7B wild type strain assessed as reduction in spore germination at 25 ug/ml relative to control; format: functional; design: scale not given: the % may be the effect or the level left; details: dose 25 µg/ml
Mucor circinelloides [4] = assay: Antifungal activity against Mucor circinelloides M5 strain assessed as reduction in spore germination at 25 ug/ml relative to control; format: functional; design: scale not given: the % may be the effect or the level left; details: dose 25 µg/ml
Mucor circinelloides [5] = assay: Antifungal activity against Mucor circinelloides R7B wild type strain assessed as reduction in spore germination at 50 ug/ml relative to control; format: functional; design: scale not given: the % may be the effect or the level left; details: dose 50 µg/ml
Mucor circinelloides [6] = assay: Antifungal activity against Mucor circinelloides M5 strain assessed as reduction in spore germination at 50 ug/ml relative to control; format: functional; design: scale not given: the % may be the effect or the level left; details: dose 50 µg/ml
Mucor circinelloides [7] = assay: Antifungal activity against Mucor circinelloides R7B wild type strain assessed as reduction in spore germination at 150 ug/ml relative to control; format: functional; design: scale not given: the % may be the effect or the level left; details: dose 150 µg/ml
Mucor circinelloides [8] = assay: Antifungal activity against Mucor circinelloides M5 strain assessed as reduction in spore germination at 150 ug/ml relative to control; format: functional; design: scale not given: the % may be the effect or the level left; details: dose 150 µg/ml
Microsporum canis [9] = assay: Antifungal activity against Microsporum canis clinical isolate 1 assessed as reduction in fungal growth by broth dilution method; format: functional
Microsporum canis [10] = assay: Antifungal activity against Microsporum canis clinical isolate 2 assessed as reduction in fungal growth by broth dilution method; format: functional
Microsporum canis [11] = assay: Antifungal activity against Microsporum canis clinical isolate 3 assessed as reduction in fungal growth by broth dilution method; format: functional
Nannizzia gypsea [12] = assay: Antifungal activity against Microsporum gypseum clinical isolate 1 assessed as reduction in fungal growth by broth dilution method; format: functional
Nannizzia gypsea [13] = assay: Antifungal activity against Microsporum gypseum clinical isolate 2 assessed as reduction in fungal growth by broth dilution method; format: functional
Mucor circinelloides [14] = assay: Antifungal activity against Mucor circinelloides M5 strain assessed as reduction in fungal growth by broth dilution method; format: functional
[15] = system: Trichophyton mentagrophytes; assay: Antifungal activity against Trichophyton mentagrophytes clinical isolate 1 assessed as reduction in fungal growth by broth dilution method; format: functional
[16] = system: Trichophyton mentagrophytes; assay: Antifungal activity against Trichophyton mentagrophytes clinical isolate 2 assessed as reduction in fungal growth by broth dilution method; format: functional
[17] = system: Trichophyton mentagrophytes; assay: Antifungal activity against Trichophyton mentagrophytes clinical isolate 3 assessed as reduction in fungal growth by broth dilution method; format: functional
Trichophyton rubrum [18] = assay: Antifungal activity against Trichophyton rubrum clinical isolate 1 assessed as reduction in fungal growth by broth dilution method; format: functional
Trichophyton rubrum [19] = assay: Antifungal activity against Trichophyton rubrum clinical isolate 2 assessed as reduction in fungal growth by broth dilution method; format: functional
Epidermophyton floccosum = assay: Antifungal activity against Epidermophyton floccosum clinical isolate 1 assessed as reduction in fungal growth by broth dilution method; format: functional
Aspergillus nidulans [20] = assay: Antifungal activity against Aspergillus nidulans clinical isolate 1 assessed as reduction in fungal growth by broth dilution method; format: functional
Aspergillus nidulans [21] = assay: Antifungal activity against Aspergillus nidulans clinical isolate 2 assessed as reduction in fungal growth by broth dilution method; format: functional
Aspergillus niger = assay: Antifungal activity against Aspergillus niger clinical isolate 1 assessed as reduction in fungal growth by broth dilution method; format: functional
Mucor circinelloides [22] = assay: Antifungal activity against Mucor circinelloides R7B wild type strain assessed as reduction in fungal growth by broth dilution method; format: functional
[23] = Cytotoxicity against mouse NIH/3T3 cells assessed as reduction in cell viability at 25 ug/ml incubated for 48 hrs by MTT assay (reference value: 93.8 +/- 4.9 %); format: toxicity, cell-based, NIH3T3; details: at 25 µg/mL, read-out: Activity
[24] = Cytotoxicity against mouse NIH/3T3 cells assessed as reduction in cell viability at 50 ug/ml incubated for 48 hrs by MTT assay (reference value: 93.8 +/- 4.9 %); format: toxicity, cell-based, NIH3T3; details: at 50 µg/mL, read-out: Activity
[25] = Cytotoxicity against mouse NIH/3T3 cells assessed as reduction in cell viability at 100 ug/ml incubated for 48 hrs by MTT assay (reference value: 93.8 +/- 4.9 %); format: toxicity, cell-based, NIH3T3; details: at 100 µg/mL, read-out: Activity
[26] = Cytotoxicity against mouse NIH/3T3 cells assessed as reduction in cell viability at 150 ug/ml incubated for 48 hrs by MTT assay (reference value: 93.8 +/- 4.9 %); format: toxicity, cell-based, NIH3T3; details: at 150 µg/mL, read-out: Activity
[27] = Cytotoxicity against mouse NIH/3T3 cells assessed as reduction in cell viability at 200 ug/ml incubated for 48 hrs by MTT assay (reference value: 93.8 +/- 4.9 %); format: toxicity, cell-based, NIH3T3; details: at 200 µg/mL, read-out: Activity
[28] = molecular target: T1, Lanosterol 14-alpha demethylase (Mus musculus, UniProt Q8K0C4); assay: Inhibition of CYP51 in mouse NIH/3T3 cells assessed as specific enzymatic activity at 25 ug/ml incubated for 48 hrs by ELISA analysis; format: ADME, cell-based; details: nih/3t3, 48 h, dose 25 µg/ml
T1 sequence (Q8K0C4 whole entry): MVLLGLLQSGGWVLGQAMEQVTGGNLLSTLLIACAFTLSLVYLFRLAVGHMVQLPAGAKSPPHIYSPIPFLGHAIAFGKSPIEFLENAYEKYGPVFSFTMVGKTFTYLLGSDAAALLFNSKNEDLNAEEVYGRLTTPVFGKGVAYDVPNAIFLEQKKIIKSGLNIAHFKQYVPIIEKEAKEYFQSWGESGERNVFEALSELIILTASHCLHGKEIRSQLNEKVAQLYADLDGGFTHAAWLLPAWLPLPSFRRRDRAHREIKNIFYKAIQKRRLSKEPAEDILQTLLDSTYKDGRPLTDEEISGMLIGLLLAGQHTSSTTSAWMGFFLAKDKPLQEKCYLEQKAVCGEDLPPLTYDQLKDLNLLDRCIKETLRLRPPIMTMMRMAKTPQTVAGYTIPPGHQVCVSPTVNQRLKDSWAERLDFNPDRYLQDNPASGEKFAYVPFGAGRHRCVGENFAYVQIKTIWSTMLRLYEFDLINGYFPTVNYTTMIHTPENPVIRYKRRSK

[29] = molecular target: T1, Lanosterol 14-alpha demethylase; assay: Inhibition of CYP51 in mouse NIH/3T3 cells assessed as specific enzymatic activity at 50 ug/ml incubated for 48 hrs by ELISA analysis; format: ADME, cell-based; details: nih/3t3, 48 h, dose 50 µg/ml
[30] = molecular target: T1, Lanosterol 14-alpha demethylase; assay: Inhibition of CYP51 in mouse NIH/3T3 cells assessed as specific enzymatic activity at 100 ug/ml incubated for 48 hrs by ELISA analysis; format: ADME, cell-based; details: nih/3t3, 48 h, dose 100 µg/ml
[31] = molecular target: T1, Lanosterol 14-alpha demethylase; assay: Inhibition of CYP51 in mouse NIH/3T3 cells assessed as specific enzymatic activity at 150 ug/ml incubated for 48 hrs by ELISA analysis; format: ADME, cell-based; details: nih/3t3, 48 h, dose 150 µg/ml
[32] = molecular target: T1, Lanosterol 14-alpha demethylase; assay: Inhibition of CYP51 in mouse NIH/3T3 cells assessed as specific enzymatic activity at 200 ug/ml incubated for 48 hrs by ELISA analysis; format: ADME, cell-based; details: nih/3t3, 48 h, dose 200 µg/ml
Mucor circinelloides [33] = assay: Antifungal activity against Mucor circinelloides R7B wild type strain assessed as few mycelia with several spores at 50 ug/ml by microscopic analysis; format: functional, organism-based; details: dose 50.0 µg/ml
Mucor circinelloides [34] = assay: Antifungal activity against Mucor circinelloides M5 strain assessed as few mycelia with several spores at 50 ug/ml by microscopic analysis; format: functional, organism-based; details: dose 50.0 µg/ml
Mucor circinelloides [35] = assay: Antifungal activity against Mucor circinelloides R7B wild type strain assessed as non-germinated spores and undifferentiated hyphae at 50 ug/ml by microscopic analysis; format: functional, organism-based; details: dose 50.0 µg/ml
Mucor circinelloides [36] = assay: Antifungal activity against Mucor circinelloides M5 strain assessed as non-germinated spores and undifferentiated hyphae at 50 ug/ml by microscopic analysis; format: functional, organism-based; details: dose 50.0 µg/ml
Mucor circinelloides [37] = assay: Antifungal activity against Mucor circinelloides R7B wild type strain assessed as complete absence of mycelia at 100 to 150 ug/ml by microscopic analysis; format: functional, organism-based; details: dose 100-150 µg/ml
Mucor circinelloides [38] = assay: Antifungal activity against Mucor circinelloides M5 strain assessed as complete absence of mycelia at 100 to 150 ug/ml by microscopic analysis; format: functional, organism-based; details: dose 100-150 µg/ml
Mucor circinelloides [39] = assay: Antifungal activity against Mucor circinelloides R7B wild type strain assessed as non-germinated spores at 100 to 150 ug/ml by microscopic analysis; format: functional, organism-based; details: dose 100-150 µg/ml
Mucor circinelloides [40] = assay: Antifungal activity against Mucor circinelloides M5 strain assessed as non-germinated spores at 100 to 150 ug/ml by microscopic analysis; format: functional, organism-based; details: dose 100-150 µg/ml

MIC (Microsporum canis [9]): 100 µg/mL (≈ 300 µM) | MIC (Microsporum canis [10]): 100 µg/mL (≈ 300 µM) | MIC (Microsporum canis [11]): 100 µg/mL (≈ 300 µM) | MIC (Nannizzia gypsea [12]): 100 µg/mL (≈ 300 µM) | MIC (Nannizzia gypsea [13]): 100 µg/mL (≈ 300 µM) | MIC (Mucor circinelloides [14]): 100 µg/mL (≈ 300 µM) | MIC [15]: 125 µg/mL (≈ 375 µM) | MIC [16]: 125 µg/mL (≈ 375 µM) | MIC [17]: 125 µg/mL (≈ 375 µM) | MIC (Trichophyton rubrum [18]): 125 µg/mL (≈ 375 µM) | MIC (Trichophyton rubrum [19]): 125 µg/mL (≈ 375 µM) | MIC (Epidermophyton floccosum): 125 µg/mL (≈ 375 µM) | MIC (Aspergillus nidulans [20]): 150 µg/mL (≈ 450 µM) | MIC (Aspergillus nidulans [21]): 150 µg/mL (≈ 450 µM) | MIC (Aspergillus niger): 150 µg/mL (≈ 450 µM) | MIC (Mucor circinelloides [22]): 150 µg/mL (≈ 450 µM) | Activity [28]: 17.96 U/mg | Activity [29]: 13.12 U/mg | Activity [30]: 6.76 U/mg | Activity [31]: 3.28 U/mg | Activity [32]: 1.18 U/mg
Structure (SMILES): Fc1cc(F)cc(-c2cc(Oc3ccccc3)c3ccccc3n2)c1
Activity (Mucor circinelloides [1]): 6.7% | Activity (Mucor circinelloides [2]): 4.5% | Activity (Mucor circinelloides [3]): 78.5% | Activity (Mucor circinelloides [4]): 74.2% | Activity (Mucor circinelloides [5]): 34.7% | Activity (Mucor circinelloides [6]): 38.5% | Activity (Mucor circinelloides [7]): 1.7% | Activity (Mucor circinelloides [8]): 2.5% | viability at 48 h, 25 ug/ml [23]: 90.7% | viability at 48 h, 50 ug/ml [24]: 53.3% | viability at 48 h, 100 ug/ml [25]: 20.4% | viability at 48 h, 150 ug/ml [26]: 15% | viability at 48 h, 200 ug/ml [27]: 12.6% | Activity (Mucor circinelloides [33]): Active | Activity (Mucor circinelloides [34]): Active | Activity (Mucor circinelloides [35]): Active | Activity (Mucor circinelloides [36]): Active | Activity (Mucor circinelloides [37]): Active | Activity (Mucor circinelloides [38]): Active | Activity (Mucor circinelloides [39]): Active | Activity (Mucor circinelloides [40]): Active
